From patent US10010614B2, “Derivatives of GLP-1 like peptides, and uses thereof” (Novo Nordisk A/S, priority 2013, dated 2018)
Like-named read-outs stand apart in the source and are kept apart here. Numbered stars: 1 amine (or outer) side, 2 acyl side, 3 side chain; on linkers, the order of the positions; unused ones are H or OH. Square brackets hold non-standard residues; d marks the D form. Side chains are listed from the residue outwards. Peptide text beside a SMILES is read from it. * marks the point of attachment. C20 diacid = O=C(O)CCCCCCCCCCCCCCCCCCC(=O)*; γGlu = O=C(O)[C@H](CCC(=O)[*:2])N[*:1]; Desaminohistidyl = O=C(CCc1c[nH]cn1)*; εLys = N[C@@H](CCCCN[*:1])C(=O)[*:2]; AEEA = NCCOCCOCC(=O)O; Aib = CC(C)(N)C(=O)O

Assays:
human GLP-1 receptor [1] = target: T1, human GLP-1 receptor (Homo sapiens, UniProt P43220); test: In vitro potency, CRE luciferase reporter gene assay in BHK cells expressing the human GLP-1 receptor; format: cell-based; settings: whole cell reporter gene assay, 3 h incubation, no HSA, averages of at least two replicates
T1 construct: expressed in transfected cells; host or cells: membranes prepared from BHK cells (parent line BHKTS13), clone FCW467-12A
T1 sequence (P43220 24-463): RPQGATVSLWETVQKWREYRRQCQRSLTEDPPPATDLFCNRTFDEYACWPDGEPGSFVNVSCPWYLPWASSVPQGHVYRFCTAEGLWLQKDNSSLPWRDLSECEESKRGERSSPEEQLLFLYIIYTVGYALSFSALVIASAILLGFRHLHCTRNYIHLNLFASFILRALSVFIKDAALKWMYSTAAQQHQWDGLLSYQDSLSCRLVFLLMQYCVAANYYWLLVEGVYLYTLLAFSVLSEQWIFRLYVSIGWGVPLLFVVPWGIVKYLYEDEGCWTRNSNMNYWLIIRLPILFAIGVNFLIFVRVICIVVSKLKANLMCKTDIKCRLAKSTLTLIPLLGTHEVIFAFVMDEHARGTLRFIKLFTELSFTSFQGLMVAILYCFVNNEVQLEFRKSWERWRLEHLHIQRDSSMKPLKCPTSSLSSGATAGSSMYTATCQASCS
Summary of the method: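 Stably transfected BHK cells (5×10^3/well) expressing human GLP-1R with a CRE-luciferase reporter; compounds diluted in buffer with 2% ovalbumin and 0.2% Pluronic F-68, final 1×10^−7 to 1×10^−14 M. Incubated 3 h at 37 °C, 5% CO2, then luminescence read; potency from non-linear log(agonist)–response fit, mean of ≥2 replicates.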

human GLP-1 receptor [2] = target: T1, human GLP-1 receptor; test: GLP-1 receptor binding, competitive binding assay (125I-GLP-1, SPA) on isolated membranes;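 also: test compounds added at a range of concentrations to membranes from cells expressing the human GLP-1 receptor, scored by displacement of labelled ligand, read with WGA SPA beads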
[3] = high serum albumin (2.0% HSA final assay concentration), read-out: High HSA IC50
[4] = low serum albumin (max. 0.001% final assay concentration), read-out: Low HSA IC50

| EC50 (human GLP-1 receptor [1]) [nM] | IC50 (human GLP-1 receptor [2]; [3]) [nM] | IC50 (human GLP-1 receptor [2]; [4]) [nM] | Compound |
| --- | --- | --- | --- |
| 0.0034 | 30 | 0.05 | CC[C@H](C)[C@H](NC(=O)[C@H](Cc1ccccc1)NC(=O)[C@H](CCC(=O)O)NC(=O)[C@H](CCCNC(=N)N)NC(=O)[C@H](C)NC(=O)[C@H](C)NC(=O)[C@H](CCC(N)=O)NC(=O)[C@H](CCC(=O)O)NC(=O)[C@H](CCC(=O)O)NC(=O)[C@H](CC(C)C)NC(=O)[C@H](Cc1ccc(O)cc1)NC(=O)[C@H](CO)NC(=O)[C@H](CO)NC(=O)[C@@H](NC(=O)[C@H](CC(=O)O)NC(=O)[C@H](CO)NC(=O)[C@@H](NC(=O)[C@H](Cc1ccccc1)NC(=O)[C@@H](NC(=O)CNC(=O)[C@H](CCC(=O)O)NC(=O)C(C)(C)NC(=O)[C@@H](N)Cc1c[nH]cn1)[C@@H](C)O)[C@@H](C)O)C(C)C)C(=O)N[C@@H](C)C(=O)N[C@@H](Cc1c[nH]c2ccccc12)C(=O)N[C@@H](CC(C)C)C(=O)N[C@H](C(=O)N[C@@H](CCCNC(=N)N)C(=O)NCC(=O)N[C@@H](CCCNC(=N)N)C(=O)NCC(=O)N[C@@H](CCCCNC(=O)COCCOCCNC(=O)COCCOCCNC(=O)COCCOCCNC(=O)COCCOCCNC(=O)COCCOCCNC(=O)COCCOCCNC(=O)[C@@H](N)CCCCNC(=O)[C@@H](N)CCCCNC(=O)CCCCCCCCCCCCCCCCCCC(=O)O)C(=O)NCC(=O)NCC(=O)N[C@@H](CO)C(=O)N[C@@H](CCCCNC(=O)COCCOCCNC(=O)COCCOCCNC(=O)COCCOCCNC(=O)COCCOCCNC(=O)COCCOCCNC(=O)COCCOCCNC(=O)[C@@H](N)CCCCNC(=O)[C@@H](N)CCCCNC(=O)CCCCCCCCCCCCCCCCCCC(=O)O)C(=O)O)C(C)C [Example 28] (H-H[Aib]EGTFTSDVSSYLEEQAAREFIAWLVRGRGK([AEEA-AEEA-AEEA-AEEA-AEEA-AEEA-εLys-εLys-C20 diacid])GGSK([AEEA-AEEA-AEEA-AEEA-AEEA-AEEA-εLys-εLys-C20 diacid])-OH; N-terminus and C-terminus assumed) |
| 0.01 | 38 | 0.22 | CC[C@H](C)[C@H](NC(=O)[C@H](Cc1ccccc1)NC(=O)[C@H](CCC(=O)O)NC(=O)[C@H](CCCNC(=N)N)NC(=O)[C@H](C)NC(=O)[C@H](C)NC(=O)[C@H](CCC(N)=O)NC(=O)[C@H](CCC(=O)O)NC(=O)[C@H](CCC(=O)O)NC(=O)[C@H](CC(C)C)NC(=O)[C@H](Cc1ccc(O)cc1)NC(=O)[C@H](CO)NC(=O)[C@H](CO)NC(=O)[C@@H](NC(=O)[C@H](CC(=O)O)NC(=O)[C@H](CO)NC(=O)[C@@H](NC(=O)[C@H](Cc1ccccc1)NC(=O)[C@@H](NC(=O)CNC(=O)[C@H](CCC(=O)O)NC(=O)C(C)(C)NC(=O)[C@@H](N)Cc1c[nH]cn1)[C@@H](C)O)[C@@H](C)O)C(C)C)C(=O)N[C@@H](C)C(=O)N[C@@H](Cc1c[nH]c2ccccc12)C(=O)N[C@@H](CC(C)C)C(=O)N[C@H](C(=O)N[C@@H](CCCNC(=N)N)C(=O)NCC(=O)N[C@@H](CCCNC(=N)N)C(=O)NCC(=O)N[C@@H](CCCCNC(=O)COCCOCCNC(=O)COCCOCCNC(=O)COCCOCCNC(=O)COCCOCCNC(=O)[C@@H](N)CCCCNC(=O)[C@@H](N)CCCCNC(=O)CCCCCCCCCCCCCCCCCCC(=O)O)C(=O)NCC(=O)NCC(=O)N[C@@H](CO)C(=O)N[C@@H](CCCCNC(=O)COCCOCCNC(=O)COCCOCCNC(=O)COCCOCCNC(=O)COCCOCCNC(=O)[C@@H](N)CCCCNC(=O)[C@@H](N)CCCCNC(=O)CCCCCCCCCCCCCCCCCCC(=O)O)C(=O)O)C(C)C [Example 25] (H-H[Aib]EGTFTSDVSSYLEEQAAREFIAWLVRGRGK([AEEA-AEEA-AEEA-AEEA-εLys-εLys-C20 diacid])GGSK([AEEA-AEEA-AEEA-AEEA-εLys-εLys-C20 diacid])-OH; N-terminus and C-terminus assumed) |
| 0.0062 | 142 | 2.4 | CC[C@H](C)[C@H](NC(=O)[C@H](Cc1ccccc1)NC(=O)[C@H](CCC(=O)O)NC(=O)[C@H](CCCNC(=N)N)NC(=O)[C@H](C)NC(=O)[C@H](C)NC(=O)[C@H](CCC(N)=O)NC(=O)[C@H](CCC(=O)O)NC(=O)[C@H](CCC(=O)O)NC(=O)[C@H](CC(C)C)NC(=O)[C@H](Cc1ccc(O)cc1)NC(=O)[C@H](CO)NC(=O)[C@H](CO)NC(=O)[C@@H](NC(=O)[C@H](CC(=O)O)NC(=O)[C@H](CO)NC(=O)[C@@H](NC(=O)[C@H](Cc1ccccc1)NC(=O)[C@@H](NC(=O)CNC(=O)[C@H](CCC(=O)O)NC(=O)C(C)(C)NC(=O)[C@@H](N)Cc1c[nH]cn1)[C@@H](C)O)[C@@H](C)O)C(C)C)C(=O)N[C@@H](C)C(=O)N[C@@H](Cc1c[nH]c2ccccc12)C(=O)N[C@@H](CC(C)C)C(=O)N[C@H](C(=O)N[C@@H](CCCNC(=N)N)C(=O)NCC(=O)N[C@@H](CCCNC(=N)N)C(=O)NCC(=O)N[C@@H](CCCCNC(=O)COCCOCCNC(=O)COCCOCCNC(=O)COCCOCCNC(=O)COCCOCCNC(=O)CC[C@H](NC(=O)CCCCCCCCCCCCCCCCCCC(=O)O)C(=O)O)C(=O)NCC(=O)NCC(=O)N[C@@H](CO)C(=O)N[C@@H](CCCCNC(=O)COCCOCCNC(=O)COCCOCCNC(=O)COCCOCCNC(=O)COCCOCCNC(=O)CC[C@H](NC(=O)CCCCCCCCCCCCCCCCCCC(=O)O)C(=O)O)C(=O)O)C(C)C [Example 19] (H-H[Aib]EGTFTSDVSSYLEEQAAREFIAWLVRGRGK([AEEA-AEEA-AEEA-AEEA-γGlu-C20 diacid])GGSK([AEEA-AEEA-AEEA-AEEA-γGlu-C20 diacid])-OH; N-terminus and C-terminus assumed) |
| 0.0084 | 270 | 4.1 | CC[C@H](C)[C@H](NC(=O)[C@H](Cc1ccccc1)NC(=O)[C@H](CCC(=O)O)NC(=O)[C@H](CCCNC(=N)N)NC(=O)[C@H](C)NC(=O)[C@H](C)NC(=O)[C@H](CCC(N)=O)NC(=O)[C@H](CCC(=O)O)NC(=O)[C@H](CCC(=O)O)NC(=O)[C@H](CC(C)C)NC(=O)[C@H](Cc1ccc(O)cc1)NC(=O)[C@H](CO)NC(=O)[C@H](CO)NC(=O)[C@@H](NC(=O)[C@H](CC(=O)O)NC(=O)[C@H](CO)NC(=O)[C@@H](NC(=O)[C@H](Cc1ccccc1)NC(=O)[C@@H](NC(=O)CNC(=O)[C@H](CCC(=O)O)NC(=O)C(C)(C)NC(=O)CCc1cnc[nH]1)[C@@H](C)O)[C@@H](C)O)C(C)C)C(=O)N[C@@H](C)C(=O)N[C@@H](Cc1c[nH]c2ccccc12)C(=O)N[C@@H](CC(C)C)C(=O)N[C@H](C(=O)N[C@@H](CCCNC(=N)N)C(=O)NCC(=O)N[C@@H](CCCNC(=N)N)C(=O)NCC(=O)N[C@@H](CCCCNC(=O)COCCOCCNC(=O)COCCOCCNC(=O)COCCOCCNC(=O)COCCOCCNC(=O)CC[C@H](NC(=O)CCCCCCCCCCCCCCCCCCC(=O)O)C(=O)O)C(=O)NCC(=O)NCC(=O)N[C@@H](CO)C(=O)N[C@@H](CCCCNC(=O)COCCOCCNC(=O)COCCOCCNC(=O)COCCOCCNC(=O)COCCOCCNC(=O)CC[C@H](NC(=O)CCCCCCCCCCCCCCCCCCC(=O)O)C(=O)O)C(=O)O)C(C)C [Example 20] (Desaminohistidyl-[Aib]EGTFTSDVSSYLEEQAAREFIAWLVRGRGK([AEEA-AEEA-AEEA-AEEA-γGlu-C20 diacid])GGSK([AEEA-AEEA-AEEA-AEEA-γGlu-C20 diacid])-OH; C-terminus assumed) |
